Laboratory results taken from the NIST ThermoML archive (doi:10.1021/je800596c).
± gives the expanded uncertainty stated by the source.

How the values were obtained:
[1] = Molar enthalpy of transition or fusion; conditions: Crystal; DSC
[2] = Crystal; DTA

Structure (SMILES)	Molar enthalpy of transition or fusion [1]	Normal melting temperature [2]
COC(=O)/C=C/c1cc(OC)c(O)c(OC)c1 [3,5-dimethoxy-4-hydroxy cinnamic acid methyl ester]	29.9 ± 0.85 kJ/mol	88.64 ± 0.5 °C
COC(=O)C=Cc1ccc(O)c(OC)c1 [methyl 3-(4-hydroxy-3-methoxyphenyl)-2-propenoate]	25.8 ± 0.75 kJ/mol	62.56 ± 0.5 °C
COC(=O)C=Cc1ccc(O)cc1 [2-propenoic acid, 3-(4-hydroxyphenyl)-, methyl ester]	30.2 ± 0.86 kJ/mol	137.56 ± 0.5 °C
